Columns and labels:
Test in all cases: KINOMEscan kinase binding assay
[1] = target: T1, 384 kinases from the human genome (Homo sapiens, UniProt Q8NG66); conditions: kinase NEK11 (Entrez NEK11)
T1 construct: purchased Eurofin/DiscoverX
How it was run: (§1)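 Competition binding (KINOMEscan) across 384 human kinases with compound at 10 µM. Ligand binding was expressed relative to DMSO (100%) as the average of duplicates from one experiment. S(10) selectivity score was derived.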

[2] = target: T2, 384 kinases from the human genome (Homo sapiens, UniProt Q9Y2H9); conditions: kinase MAST1 (Entrez MAST1)
T2 construct: purchased Eurofin/DiscoverX
How it was run: as §1

[3] = target: T3, 384 kinases from the human genome (Homo sapiens, UniProt Q96GD4); conditions: kinase AURKB (Entrez AURKB)
T3 construct: purchased Eurofin/DiscoverX
How it was run: as §1

[4] = target: T4, 384 kinases from the human genome (Homo sapiens, UniProt Q9NSY1); conditions: kinase BIKE (Entrez BMP2K)
T4 construct: purchased Eurofin/DiscoverX
How it was run: as §1

[5] = target: T5, 384 kinases from the human genome (Homo sapiens, UniProt P36896); conditions: kinase ACVR1B (Entrez ACVR1B)
T5 construct: purchased Eurofin/DiscoverX
How it was run: as §1

[6] = target: T6, 384 kinases from the human genome (Homo sapiens, UniProt P45983); conditions: kinase JNK1 (Entrez MAPK8)
T6 construct: purchased Eurofin/DiscoverX
How it was run: as §1

[7] = target: T7, 384 kinases from the human genome (Homo sapiens, UniProt P57078); conditions: kinase RIPK4 (Entrez RIPK4)
T7 construct: purchased Eurofin/DiscoverX
How it was run: as §1

[8] = target: T8, 384 kinases from the human genome (Homo sapiens, UniProt P22694); conditions: kinase PKAC-beta (Entrez PRKACB)
T8 construct: purchased Eurofin/DiscoverX
How it was run: as §1

[9] = target: T9, 384 kinases from the human genome (Homo sapiens, UniProt O95819); conditions: kinase MAP4K4 (Entrez MAP4K4)
T9 construct: purchased Eurofin/DiscoverX
How it was run: as §1

[10] = target: T10, 384 kinases from the human genome (Homo sapiens, UniProt Q7L7X3); conditions: kinase TAOK1 (Entrez TAOK1)
T10 construct: purchased Eurofin/DiscoverX
How it was run: as §1

[11] = target: T11, 384 kinases from the human genome (Homo sapiens, UniProt O15111); conditions: kinase IKK-alpha (Entrez CHUK)
T11 construct: purchased Eurofin/DiscoverX
How it was run: as §1

[12] = target: T12, 384 kinases from the human genome (Homo sapiens, UniProt Q9UHD2); conditions: kinase TBK1 (Entrez TBK1)
T12 construct: purchased Eurofin/DiscoverX
How it was run: as §1

[13] = target: T13, 384 kinases from the human genome (Homo sapiens, UniProt P78356); conditions: kinase PIP5K2B (Entrez PIP4K2B)
T13 construct: purchased Eurofin/DiscoverX
How it was run: as §1

[14] = target: T14, 384 kinases from the human genome (Homo sapiens, UniProt Q9H2G2); conditions: kinase SLK (Entrez SLK)
T14 construct: purchased Eurofin/DiscoverX
How it was run: as §1

[15] = target: T15, 384 kinases from the human genome (Homo sapiens, UniProt Q14004); conditions: kinase CDC2L5 (Entrez CDK13)
T15 construct: purchased Eurofin/DiscoverX
How it was run: as §1

[16] = target: T16, 384 kinases from the human genome (Homo sapiens, UniProt Q9Y2K2); conditions: kinase QSK (Entrez KIAA0999)
T16 construct: purchased Eurofin/DiscoverX
How it was run: as §1

[17] = target: T17, 384 kinases from the human genome (Homo sapiens, UniProt P80192); conditions: kinase MLK1 (Entrez MAP3K9)
T17 construct: purchased Eurofin/DiscoverX
How it was run: as §1

[18] = target: T18, 384 kinases from the human genome (Homo sapiens, UniProt P11309); conditions: kinase PIM1 (Entrez PIM1)
T18 construct: purchased Eurofin/DiscoverX
How it was run: as §1

[19] = target: T19, 384 kinases from the human genome (Homo sapiens, UniProt O75914); conditions: kinase PAK3 (Entrez PAK3)
T19 construct: purchased Eurofin/DiscoverX
How it was run: as §1

[20] = target: T20, 384 kinases from the human genome (Homo sapiens, UniProt Q16513); conditions: kinase PKN2 (Entrez PKN2)
T20 construct: purchased Eurofin/DiscoverX
How it was run: as §1

[21] = target: T21, 384 kinases from the human genome (Homo sapiens, UniProt P53671); conditions: kinase LIMK2 (Entrez LIMK2)
T21 construct: purchased Eurofin/DiscoverX
How it was run: as §1

[22] = target: T22, 384 kinases from the human genome (Homo sapiens, UniProt Q13554); conditions: kinase CAMK2B (Entrez CAMK2B)
T22 construct: purchased Eurofin/DiscoverX
How it was run: as §1

[23] = target: T23, 384 kinases from the human genome (Homo sapiens, UniProt P09619)
T23 construct: purchased Eurofin/DiscoverX
How it was run: as §1

[24] = target: T24, 384 kinases from the human genome (Homo sapiens, UniProt Q86V86); conditions: kinase PIM3 (Entrez PIM3)
T24 construct: purchased Eurofin/DiscoverX
How it was run: as §1

[25] = target: T25, 384 kinases from the human genome (Homo sapiens, UniProt P07949); conditions: kinase RET (Entrez RET)
T25 construct: purchased Eurofin/DiscoverX
How it was run: as §1

[26] = target: T26, 384 kinases from the human genome (Homo sapiens, UniProt Q07002); conditions: kinase PCTK3 (Entrez CDK18)
T26 construct: purchased Eurofin/DiscoverX
How it was run: as §1

T23 sequence (P09619 33-1106): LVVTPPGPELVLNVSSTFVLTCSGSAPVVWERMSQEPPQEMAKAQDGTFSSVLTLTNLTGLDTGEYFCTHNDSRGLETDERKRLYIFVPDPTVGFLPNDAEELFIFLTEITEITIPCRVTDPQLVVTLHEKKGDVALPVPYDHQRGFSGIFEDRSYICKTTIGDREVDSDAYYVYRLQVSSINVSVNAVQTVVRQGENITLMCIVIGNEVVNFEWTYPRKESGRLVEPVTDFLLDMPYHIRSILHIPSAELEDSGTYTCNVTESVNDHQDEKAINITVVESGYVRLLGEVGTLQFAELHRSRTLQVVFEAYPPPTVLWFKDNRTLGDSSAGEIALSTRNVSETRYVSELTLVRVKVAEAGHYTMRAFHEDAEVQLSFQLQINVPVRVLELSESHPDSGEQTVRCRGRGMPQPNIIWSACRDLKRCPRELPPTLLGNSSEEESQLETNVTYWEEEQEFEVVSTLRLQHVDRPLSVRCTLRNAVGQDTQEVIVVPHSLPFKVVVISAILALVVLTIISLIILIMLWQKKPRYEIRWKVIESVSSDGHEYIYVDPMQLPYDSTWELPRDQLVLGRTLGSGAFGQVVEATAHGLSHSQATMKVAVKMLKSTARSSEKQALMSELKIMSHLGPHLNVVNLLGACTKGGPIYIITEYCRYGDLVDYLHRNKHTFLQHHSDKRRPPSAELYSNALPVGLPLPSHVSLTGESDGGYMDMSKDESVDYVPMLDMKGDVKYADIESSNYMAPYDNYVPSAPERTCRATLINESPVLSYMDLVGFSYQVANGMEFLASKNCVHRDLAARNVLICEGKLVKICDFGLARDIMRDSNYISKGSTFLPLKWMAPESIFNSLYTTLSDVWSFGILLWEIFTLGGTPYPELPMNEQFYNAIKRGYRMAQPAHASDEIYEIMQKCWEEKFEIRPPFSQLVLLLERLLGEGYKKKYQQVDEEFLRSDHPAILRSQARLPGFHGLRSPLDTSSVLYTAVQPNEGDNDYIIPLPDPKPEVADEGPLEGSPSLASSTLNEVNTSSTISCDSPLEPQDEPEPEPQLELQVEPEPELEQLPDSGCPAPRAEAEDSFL
T6 sequence (P45983 whole entry): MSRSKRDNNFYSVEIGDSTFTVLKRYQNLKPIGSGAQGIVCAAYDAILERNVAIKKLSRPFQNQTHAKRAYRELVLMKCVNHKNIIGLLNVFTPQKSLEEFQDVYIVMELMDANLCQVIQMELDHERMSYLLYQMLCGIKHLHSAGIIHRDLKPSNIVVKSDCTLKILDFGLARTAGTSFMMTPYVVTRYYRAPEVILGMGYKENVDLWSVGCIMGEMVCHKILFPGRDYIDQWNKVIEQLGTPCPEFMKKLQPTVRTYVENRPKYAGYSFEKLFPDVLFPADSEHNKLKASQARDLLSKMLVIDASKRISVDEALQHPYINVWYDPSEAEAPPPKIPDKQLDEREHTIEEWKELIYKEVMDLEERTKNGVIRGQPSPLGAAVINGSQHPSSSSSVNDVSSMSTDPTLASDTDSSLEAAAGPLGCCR
T19 sequence (O75914 whole entry): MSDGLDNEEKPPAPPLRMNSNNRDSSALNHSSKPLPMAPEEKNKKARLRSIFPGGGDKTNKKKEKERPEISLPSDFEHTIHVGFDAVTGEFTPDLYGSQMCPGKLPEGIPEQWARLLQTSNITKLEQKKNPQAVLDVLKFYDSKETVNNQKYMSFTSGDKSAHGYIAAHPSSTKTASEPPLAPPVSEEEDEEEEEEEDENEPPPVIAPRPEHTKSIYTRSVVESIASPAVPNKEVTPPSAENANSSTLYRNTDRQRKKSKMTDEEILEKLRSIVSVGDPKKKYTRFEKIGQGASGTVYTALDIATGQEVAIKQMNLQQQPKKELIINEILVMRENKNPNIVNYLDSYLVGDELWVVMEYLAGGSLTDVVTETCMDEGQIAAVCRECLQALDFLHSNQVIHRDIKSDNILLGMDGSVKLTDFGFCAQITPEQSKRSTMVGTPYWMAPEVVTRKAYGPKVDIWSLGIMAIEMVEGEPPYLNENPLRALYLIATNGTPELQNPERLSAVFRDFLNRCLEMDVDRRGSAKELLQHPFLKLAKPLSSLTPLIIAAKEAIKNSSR
T7 sequence (P57078 whole entry): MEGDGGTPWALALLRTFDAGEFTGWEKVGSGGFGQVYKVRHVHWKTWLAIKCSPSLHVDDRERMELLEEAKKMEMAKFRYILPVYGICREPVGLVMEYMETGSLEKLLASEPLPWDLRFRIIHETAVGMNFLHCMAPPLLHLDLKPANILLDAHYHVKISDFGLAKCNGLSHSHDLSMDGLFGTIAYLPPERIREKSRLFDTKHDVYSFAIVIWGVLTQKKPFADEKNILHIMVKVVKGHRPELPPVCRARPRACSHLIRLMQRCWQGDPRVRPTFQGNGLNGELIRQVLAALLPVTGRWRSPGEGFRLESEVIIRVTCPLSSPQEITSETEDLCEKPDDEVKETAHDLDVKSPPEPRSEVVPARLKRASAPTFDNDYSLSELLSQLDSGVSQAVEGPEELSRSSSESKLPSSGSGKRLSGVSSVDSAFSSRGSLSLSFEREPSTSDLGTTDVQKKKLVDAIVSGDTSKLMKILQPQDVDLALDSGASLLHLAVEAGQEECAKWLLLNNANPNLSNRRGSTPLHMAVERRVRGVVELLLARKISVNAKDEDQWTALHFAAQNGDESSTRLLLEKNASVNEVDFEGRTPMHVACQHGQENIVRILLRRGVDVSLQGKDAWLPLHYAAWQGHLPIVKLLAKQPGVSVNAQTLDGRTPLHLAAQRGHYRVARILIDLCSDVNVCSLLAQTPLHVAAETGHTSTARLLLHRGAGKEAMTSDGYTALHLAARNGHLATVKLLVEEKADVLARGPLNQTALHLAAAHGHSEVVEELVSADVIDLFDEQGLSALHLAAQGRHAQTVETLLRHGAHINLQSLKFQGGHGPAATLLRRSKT
T3 sequence (Q96GD4 whole entry): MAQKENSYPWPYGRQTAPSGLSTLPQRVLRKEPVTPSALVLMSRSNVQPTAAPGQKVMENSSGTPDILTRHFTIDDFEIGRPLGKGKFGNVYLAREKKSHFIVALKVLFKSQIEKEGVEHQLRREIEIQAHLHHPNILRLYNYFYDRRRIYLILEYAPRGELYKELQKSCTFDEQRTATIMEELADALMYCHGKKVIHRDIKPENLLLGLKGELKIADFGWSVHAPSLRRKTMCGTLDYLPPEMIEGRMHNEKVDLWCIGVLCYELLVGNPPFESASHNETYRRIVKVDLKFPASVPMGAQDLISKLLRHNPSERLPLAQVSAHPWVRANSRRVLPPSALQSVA
T21 sequence (P53671 whole entry): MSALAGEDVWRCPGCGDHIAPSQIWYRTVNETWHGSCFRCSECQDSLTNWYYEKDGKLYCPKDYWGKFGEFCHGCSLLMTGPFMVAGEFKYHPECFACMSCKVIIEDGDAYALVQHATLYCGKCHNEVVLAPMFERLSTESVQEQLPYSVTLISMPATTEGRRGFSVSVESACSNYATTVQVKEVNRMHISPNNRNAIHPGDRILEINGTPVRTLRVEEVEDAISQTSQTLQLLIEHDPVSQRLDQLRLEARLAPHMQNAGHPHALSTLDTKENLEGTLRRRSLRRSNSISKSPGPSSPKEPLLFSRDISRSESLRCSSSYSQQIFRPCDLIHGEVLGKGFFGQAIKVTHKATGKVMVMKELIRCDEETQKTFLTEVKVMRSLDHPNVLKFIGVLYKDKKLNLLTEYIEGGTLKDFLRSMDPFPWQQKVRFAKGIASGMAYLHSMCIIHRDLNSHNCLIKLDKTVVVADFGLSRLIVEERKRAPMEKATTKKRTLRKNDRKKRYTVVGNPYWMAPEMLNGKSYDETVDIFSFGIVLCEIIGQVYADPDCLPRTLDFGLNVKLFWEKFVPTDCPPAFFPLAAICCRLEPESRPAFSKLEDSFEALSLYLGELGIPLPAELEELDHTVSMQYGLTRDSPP
T26 sequence (Q07002 whole entry): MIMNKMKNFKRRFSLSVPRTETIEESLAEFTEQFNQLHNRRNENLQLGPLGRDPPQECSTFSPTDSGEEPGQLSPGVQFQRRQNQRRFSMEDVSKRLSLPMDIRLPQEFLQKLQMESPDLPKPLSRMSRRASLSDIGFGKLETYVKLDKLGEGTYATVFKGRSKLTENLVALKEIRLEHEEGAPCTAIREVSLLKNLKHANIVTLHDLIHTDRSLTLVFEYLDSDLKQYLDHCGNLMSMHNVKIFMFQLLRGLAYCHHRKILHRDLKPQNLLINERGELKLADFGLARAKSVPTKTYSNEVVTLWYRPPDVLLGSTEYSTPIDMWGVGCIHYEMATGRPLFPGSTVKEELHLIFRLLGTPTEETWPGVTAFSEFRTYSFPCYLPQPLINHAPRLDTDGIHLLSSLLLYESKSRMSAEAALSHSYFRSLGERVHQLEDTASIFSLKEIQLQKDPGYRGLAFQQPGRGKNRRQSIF
T18 sequence (P11309 whole entry): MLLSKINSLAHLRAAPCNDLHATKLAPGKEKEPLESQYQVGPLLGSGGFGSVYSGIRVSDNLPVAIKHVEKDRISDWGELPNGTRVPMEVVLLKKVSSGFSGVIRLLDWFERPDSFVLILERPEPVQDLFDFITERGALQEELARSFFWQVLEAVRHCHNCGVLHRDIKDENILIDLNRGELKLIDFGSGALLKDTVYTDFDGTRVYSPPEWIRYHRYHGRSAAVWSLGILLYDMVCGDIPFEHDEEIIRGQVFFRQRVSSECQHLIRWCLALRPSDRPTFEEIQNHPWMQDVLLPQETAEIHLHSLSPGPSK

CC(C)C(=O)N1CCN(c2ccc(NC(=O)c3cc4ccccc4o3)cc2Cl)CC1 [Compound 21]
Percent Control [1]: 97% | Percent Control [2]: 100% | Percent Control [3]: 83% | Percent Control [4]: 100% | Percent Control [5]: 85% | Percent Control [6]: 63% | Percent Control [7]: 87% | Percent Control [8]: 93% | Percent Control [9]: 66% | Percent Control [10]: 100% | Percent Control [11]: 100% | Percent Control [12]: 100% | Percent Control [13]: 83% | Percent Control [14]: 100% | Percent Control [15]: 100% | Percent Control [16]: 100% | Percent Control [17]: 96% | Percent Control [18]: 96% | Percent Control [19]: 92% | Percent Control [20]: 100% | Percent Control [21]: 90% | Percent Control [22]: 100% | PDGFRB binding to its ligand affected ([23]; 10 µM of 21, compared to DMSO (100%)): more than 90% | Percent Control ([23]; kinase PDGFRB (Entrez PDGFRB)): 2.6% | Percent Control [24]: 90% | Percent Control [25]: 83% | Percent Control [26]: 96%

Source: publication PMC8333425, “Discovery of a dual Ras and ARF6 inhibitor from a GPCR endocytosis screen” (Nature Communications, 2021)
